{"source": "a melting point compilation (Tetko et al.; mined from patent text by program, amines drawn as free bases though some values may be those of a salt)"}
{"units": {"melting point": "°C"}}
{"molecule": "O=C(Nc1ccc(F)c(C(F)(F)F)c1)Nc1ccc(OCc2ccccc2)cc1O", "melting point": "188 to 191"}
{"molecule": "CCOc1ccc2c(c1)C(c1ccccc1Cl)C(=O)N2", "note": "(stereo not given)", "melting point": "176 to 180"}
{"molecule": "CCOC(=O)c1c(C)nc(-c2ccccc2)nc1-c1cc([N+](=O)[O-])ccc1SC", "melting point": "125 to 126"}
{"molecule": "CN1C=C(C(=O)O)C(=O)CC1c1ccc(Cl)cc1", "note": "(stereo not given)", "melting point": "205 to 206"}
{"molecule": "CCOC(=O)CCCCCCC1C(=O)NC(=O)N1CCC(=O)C1CCCCC1", "note": "(stereo not given)", "melting point": "77.5 to 78.5"}
{"molecule": "CN(CC(O)c1ccc(Cl)c(Cl)c1)C(=O)OC(C)(C)C", "note": "(stereo not given)", "melting point": 88}
{"molecule": "Nc1nnc(-c2ccc3ncn(-c4cc(C(F)(F)F)ccc4Cl)c3c2)o1", "melting point": "288 to 289"}
{"molecule": "CC(C)C1(C)N=C(c2ccc(O)cn2)NC1=O", "note": "(stereo not given)", "melting point": "252 to 254"}
{"molecule": "NS(=O)(=O)c1ccc(-c2cccc(-c3nc(-c4ccc(Cl)s4)cc(C(F)(F)F)n3)c2)s1", "melting point": 233}
{"molecule": "CNC(=O)c1cc(-c2ccc(F)cc2)c2c3c(ccc2n1)OCO3", "melting point": "233 to 235"}
{"molecule": "O=C(O)c1ccc(OCCCC2CCN(c3ccc(Cl)nn3)CC2)cc1", "melting point": 209}
{"molecule": "Cc1n[nH]c(COc2nn3c(-c4ccccc4)nnc3cc2-c2ccccc2)n1", "melting point": "233 to 235"}
{"molecule": "Cn1c([N+](=O)[O-])cnc1C1=NOC2OCCCC12", "note": "(stereo not given)", "melting point": "140 to 142"}
{"molecule": "CCCCCCCCCCCCC1(CCCCCCCCCCCC)c2cc(Br)ccc2-c2ccc(Br)cc21", "melting point": "49 to 50"}
{"molecule": "COc1nnc(-c2cc3c([nH]c2=O)CCN(Cc2ccccc2)C3)o1", "melting point": "176 to 178"}
{"molecule": "COC(=O)C1Oc2ccc(C3CCCCC3)cc2C(C)(c2ccccc2)O1", "note": "(stereo not given)", "melting point": 107}
{"molecule": "COC(=O)CC/C(C)=C/Cc1c(O)c2c(c(C)c1OC)COC2=O", "melting point": "104 to 105"}
{"molecule": "CC(CS)C(=O)N(CC(=O)O)CC1CCCO1", "note": "(stereo not given)", "melting point": "128 to 130"}
{"molecule": "COc1ccc(CNC(=O)C23CC4CC(CC(C4)C2)C3)cc1", "melting point": "91 to 94"}
{"molecule": "CNCC1Cc2cc(Cl)cc(-c3ccccc3OC)c2O1", "note": "(stereo not given)", "melting point": "100 to 102"}
{"molecule": "O=C(Nc1ccc(CCN2C(=O)[C@H]3CCC[C@H]3N(C(=O)CN3C(=O)c4ccccc4C3=O)c3ccccc32)cc1)OCc1ccccc1", "note": "(relative stereo)", "melting point": "152 to 154"}
{"molecule": "O=C(OC1CCN(Cc2ccccc2)CC1)c1cccc(I)c1", "melting point": "101 to 103"}
{"molecule": "CC(C)(C)SC1CN(C(=O)OCc2ccccc2)CC1NS(=O)(=O)c1ccc(Oc2ccccc2)cc1", "note": "(stereo not given)", "melting point": "125 to 126"}
{"molecule": "COc1ccnc(C(C)Sc2nc3cc(OC(F)F)c(OC)cc3[nH]2)c1", "note": "(stereo not given)", "melting point": "128 to 131"}
{"molecule": "CS(=O)(=O)c1ccc(-c2scnc2-c2ccc(F)cc2)cc1", "melting point": "138 to 139"}
{"molecule": "COc1cccc([C@@]23CCC[C@@H]2CN(C)CC3)c1", "note": "(relative stereo)", "melting point": "40 to 43"}
{"molecule": "CCOC(=O)C(C)(C)NC(=O)c1cccc(C2=NC(C)(C)Cc3cc(OCC)c4c(c32)CC(C)(C)O4)c1", "melting point": "155 to 156"}
{"molecule": "Cc1ccc(Oc2c(Cl)c(Oc3ccc(C)cc3)c(Oc3ccc(C)cc3)c(C#N)c2C#N)cc1", "melting point": "142 to 145"}
{"molecule": "CS(=O)(=O)c1ccc(-n2cnc(Cl)c2-c2cnc(Cl)c(Cl)c2)cc1", "melting point": "223 to 230"}
{"molecule": "CCOC(=O)N(CC)c1cccc(-c2ccnc3ccnn23)c1", "melting point": "79 to 81"}
{"molecule": "O=C(O)c1cc(=O)cc(C=Cc2ccccc2)o1", "melting point": "227 to 228"}
{"molecule": "CN(C)C1=Nc2ccccc2C(O)(c2ccccc2)C1(C)C", "note": "(stereo not given)", "melting point": "170 to 173"}
{"molecule": "COC(=O)c1ccc(-c2nc(C)no2)s1", "melting point": "154 to 156"}
{"molecule": "CC(=O)Nc1c(C(=O)c2cccc(C)c2)[nH]c2cc(Cl)ccc12", "melting point": "96 to 100"}
{"molecule": "NC(=O)c1ccc2c(c1)CCOC2CCN1CCN(c2ccc(Cl)cc2)CC1", "note": "(stereo not given)", "melting point": "169 to 171"}
{"molecule": "CCN(CC)C(=O)c1ccccc1-c1ccc2ccccc2c1", "melting point": "52 to 53"}
{"molecule": "CCOC(=O)C(=O)C1Cc2ccc(NS(=O)(=O)c3ccc(C)cc3)cc2C1=O", "note": "(stereo not given)", "melting point": "202 to 204"}
{"molecule": "CCCC1OCc2c(O)c(C)nc(Cl)c21", "note": "(stereo not given)", "melting point": 242}
{"molecule": "CN1C(=O)N(C)C(=O)C(C(N)=O)(c2ccc(Cl)cc2)C1=O", "melting point": "225 to 227"}
{"molecule": "CC(=O)c1ccc(OCCCBr)c(C)c1", "melting point": "59 to 61"}
{"molecule": "CC1CN(c2ccccc2)c2ccccc2N1", "note": "(stereo not given)", "melting point": "91 to 93"}
{"molecule": "O=[N+]([O-])c1ccc(Sc2ccccc2)cc1OCc1ccccc1", "melting point": "77 to 79"}
{"molecule": "CCCC(=O)c1cnc2c(OC)cccc2c1Nc1c(C)cc2c(c1C)OCO2", "melting point": "150 to 152"}
{"molecule": "CCN1c2ncc(COc3ccccc3O)cc2C(=O)N(C)c2ccc(Cl)nc21", "melting point": "172 to 173"}
{"molecule": "O=c1c2ccccc2oc2cccnc12", "melting point": "184 to 185"}
{"molecule": "Nc1nc2ccc(S(=O)(=O)n3c(CCC(=O)O)cc4cc(Cl)ccc43)cc2s1", "melting point": "250 to 255"}
{"molecule": "NC(=O)c1cc(F)cc(-c2cccc3cc(Cc4cc(F)cc(Cl)c4)sc23)c1", "melting point": "186 to 187"}
{"molecule": "O=COC1(N=NC2(OC=O)CCCCC2)CCCCC1", "melting point": "97 to 99.5"}
{"molecule": "CC(C)(C)c1cc(C2=CCOCC2)c(O)c(C(C)(C)C)c1", "melting point": "135 to 139"}
{"molecule": "Cc1ccc(S(=O)(=O)N2CCC[C@H]2C(=O)N2c3ccc(F)c(Cl)c3C(=O)CC2C)cc1", "note": "(stereo not given in full)", "melting point": "135 to 136"}
{"molecule": "CCCCc1sc2ccccc2c1C(=O)c1ccc(NS(=O)(=O)c2ccc(C)cc2)cc1", "melting point": 128}
{"molecule": "COc1cc(OC)cc(C2CCCCC2=CC(=O)O)c1", "note": "(stereo not given)", "melting point": "154 to 156"}
{"molecule": "CN(CCCNc1ncc(Cc2ccc(Cl)c(Cl)c2)c(=O)[nH]1)c1ccccn1", "melting point": "86 to 92"}
{"molecule": "COc1ccc(C=Cc2ccc(CO)cc2)cc1", "melting point": "200 to 202"}
{"molecule": "CCNC(=O)Nc1nc2cc(-c3cccnc3)cc(-c3nnc(C)o3)n2n1", "melting point": "318 to 321"}
{"molecule": "CC(C)(C)c1ccc(C(=O)Nc2cc[nH]c(=O)n2)cc1", "melting point": "> 260"}
{"molecule": "CCc1cc2c(s1)S(=O)(=O)Cc1cc(=O)n(-c3ccc(Cl)cc3)nc1-2", "melting point": "189 to 191"}
{"molecule": "Cn1ccc(-c2nnc(Cc3ccc(F)cc3)o2)c(O)c1=O", "melting point": "216 to 218"}
{"molecule": "O=C(Nc1ccc(OCc2ccccc2)cc1)C1CC1", "melting point": 162}
{"molecule": "CCC(CC)Oc1cc(C)nc(Nc2c(C)cc(C)cc2C)c1C", "melting point": "132 to 133"}
{"molecule": "O=[N+]([O-])c1ccc2ccccc2c1NCC12CCCN1CCC2", "melting point": "88 to 89"}
{"molecule": "O=C(NCc1cccnc1)c1ccc2n1Cc1ccccc1N(C(=O)c1ccc(-c3ncccn3)cc1)C2", "melting point": "234 to 236"}
{"molecule": "CCc1ccc(Cc2c(OC)cccc2OC)cc1", "melting point": "62.5 to 66.5"}
{"molecule": "CCC1(CCCN2CCN(c3cccc(Cl)c3)CC2)C(=O)Nc2ccccc21", "note": "(stereo not given)", "melting point": "119 to 120"}
{"molecule": "COc1ccc(-c2ccc(NN)nn2)cc1OC(C)C", "melting point": 116}
{"molecule": "N#CCSc1nc(NCc2ccc3c(c2)OCO3)cc(-c2ccccc2)n1", "melting point": "140 to 142"}
{"molecule": "CCCCc1ccc(-c2cnc(-c3ccc(C#N)cc3)nc2)cc1", "melting point": 94.7}
{"molecule": "COc1cc(C(=O)OCC2(N(C)C)CCSc3ccccc32)cc(OC)c1OC", "note": "(stereo not given)", "melting point": "146 to 148"}
{"molecule": "COC1(c2cccc3[nH]ccc23)CCCNC1", "note": "(stereo not given)", "melting point": 212}
{"molecule": "O=C(O)c1ccc(Cl)c2c1CCNCC2", "melting point": "144 to 149"}
{"molecule": "O=C1CNC2=C(CCc3cc(F)ccc32)C1", "melting point": "223 to 224"}
{"molecule": "Cc1cccc(NC(=O)NCC(=O)N(c2ccccc2)C(C(=O)OC(C)(C)C)c2ccc(Cl)cc2)c1", "note": "(racemic)", "melting point": 167}
{"molecule": "C[C@@H](O)CCN1CCC(c2noc3cc(F)ccc23)CC1", "melting point": "82 to 84"}
{"molecule": "CCCCCCCCCCCCCCCCNc1ccc(C(=O)NCCS(=O)(=O)O)cc1", "melting point": "190 to 220"}
{"molecule": "CCOC(=O)c1ncc2[nH]c3ccc(N)cc3c2n1", "melting point": "256 to 258"}
{"molecule": "Cc1ccc([N+](=O)[O-])cc1NC(N)=S", "melting point": "164 to 166"}
{"molecule": "COc1cc(Nc2ncc([N+](=O)[O-])c(-c3ccccc3)n2)cc(OC)c1OC", "melting point": "103 to 105"}
{"molecule": "FC(F)(F)c1cccc(Oc2cccc(-c3nnc(Nc4ccc(Cl)c(Cl)c4)s3)c2)c1", "melting point": "212 to 213"}
{"molecule": "CN1CCC(=C2c3ccccc3CCn3ncnc32)CC1", "melting point": 127}
{"molecule": "O=C(Nc1cccc2c1C(=O)c1c-2n[nH]c1-c1ccc(C(=O)NC2CN3CCC2CC3)s1)NN1CCOCC1", "note": "(stereo not given)", "melting point": "245 to 246"}
{"molecule": "CC(C)n1cc(C2CCC3(CC2)OCCO3)c2cc(C#N)ccc21", "melting point": "114 to 116"}
{"molecule": "Cn1nnnc1NCCSCc1csc(NC(=N)N)n1", "melting point": "80 to 83"}
{"molecule": "CN1CCc2c(-c3ccc(F)cc3)ccc([N+](=O)[O-])c2C1", "melting point": "140 to 143"}
{"molecule": "COc1ccccc1N1CCN(C(=O)[C@H](N)CC2CCCCC2)CC1", "melting point": "165 to 168"}
{"molecule": "C[C@@H](Nc1ncnc2[nH]c(-c3ccc(CN(CCO)CCO)cc3)cc12)c1ccccc1", "melting point": "194 to 197"}
{"molecule": "O=C(O)c1cc(OCCCCCCc2cccc(O)c2O)ccc1O", "melting point": "159 to 161"}
{"molecule": "COc1ccc2nc(CC(C)C)c(CN)c(-c3ccccc3)c2c1", "melting point": "73 to 76"}
{"molecule": "SCC1CSC2(SCCS2)S1", "note": "(stereo not given)", "melting point": "79 to 80.5"}
{"molecule": "CCCc1nc2c(N)nc3cc(OCc4ccccc4OC)ccc3c2n1CC(C)C", "melting point": "205 to 206"}
{"molecule": "COCCCn1c(CO)c(Cl)c2c3c(c(-c4ccccc4Cl)cc21)C(=O)NC3=O", "melting point": "214 to 215"}
{"molecule": "CCCOCCOC(=O)C1=C(C)NC(C)=C(S(=O)(=O)N(C)CCOC)C1c1cccc([N+](=O)[O-])c1", "note": "(stereo not given)", "melting point": "67 to 70"}
{"molecule": "OC(CCN1CCC(c2ccc(Cl)cc2)CC1)c1ccc(Cl)cc1", "note": "(stereo not given)", "melting point": "152 to 154"}
{"molecule": "COc1cc2c(cc1OC(C)C)-c1c(Br)c3c(n1CC2)C(=O)N(C(C)(C)C)CCOC3", "melting point": "160 to 162"}
{"molecule": "COc1cc(C(=O)O)ccc1Cc1c(Cl)n(C)c2cc(Cl)c(CCNC(=O)N(C)C)cc12", "melting point": 207}
{"molecule": "CCOC(=O)C1CNc2c(OC)cc(Cc3cnc(N)nc3N)c(OC)c2C1", "note": "(stereo not given)", "melting point": "186 to 188"}
{"molecule": "c1cc2c3c(nnc4c3c1OCC4)CCO2", "melting point": 249}
{"molecule": "O=C1c2ccccc2C(=O)N1CC1CN(Cc2ccccc2)CCN1Cc1ccccc1", "note": "(stereo not given)", "melting point": 124}
{"molecule": "CC(C)(CCc1nnn[nH]1)c1ccc(C(=O)Nc2cn3cc(Cl)ccc3n2)cc1", "melting point": "250 to 251"}
{"molecule": "N#Cc1ccc(C(=O)Nc2cccc(-n3nc(C(F)(F)F)cc3C(F)(F)F)c2)cc1", "melting point": "133 to 134"}
{"molecule": "NC(=O)[C@H](Cc1ccccc1)N1C(=O)c2ccccc2C1=O", "melting point": "211 to 215"}
